Reference: ChEMBL document CHEMBL1255508, “Neopetrosiamine A, biologically active bis-piperidine alkaloid from the Caribbean sea sponge Neopetrosia proxima” (Bioorg Med Chem Lett, 2010)
Values after ≈ are worked out from the molar mass of the structure shown.

What was measured:
[1] = system: Mycobacterium tuberculosis; test: Antimycobacterial activity against Mycobacterium tuberculosis H37Rv by microplate alamar blue assay; type: functional
MCF7 = test: […] activity against human MCF7 cells; type: functional, cell-based
CCRF-CEM = test: […] activity against human CCRF-CEM cells; type: functional, cell-based
Plasmodium falciparum = test: Antiplasmodial activity against Plasmodium falciparum; type: functional, organism-based
Malme-3M = test: […] activity against human MALME-3M cells; type: functional, cell-based
Vero = test: Cytotoxicity against african green monkey Vero cells; type: cell-based; details: Chlorocebus sabaeus

`C1=C\CCCCN2CC[C@@H]3[C@@H](CCCC/C=C\CCCCN4C[C@H](CCCC/1)C[C@H]3C4)C2` [NEOPETROSIAMINE A] showed an MIC [1] of 7.5 µg/mL (≈ 17 µM), an IC50 (MCF7) of 3.5 µM and an IC50 (CCRF-CEM) of 2 µM. For the same molecule, the IC50 (Plasmodium falciparum) was 2.3 µM, the IC50 (Malme-3M) was 1.5 µM and the IC50 (Vero) was 42.4 µg/mL (≈ 96.2 µM).
